Reference: the supplement of paper PMC10307832

Tests used:
Experiment in all cases: relative viability (nuclei count vs DMSO), 5 days (fraction); higher = more cells survive
[1] = compound: CC1=CC(=CC=C1)NC2=NC(=CS2)C3=CC=NC=C3 + COc1cccc2cc(-c3nc([C@H]4CC[C@H](C(=O)O)CC4)n4ncnc(N)c34)[nH]c12 [OSI-027] (partner 0.5 µM)
In short: (§1)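 Lung cancer cell lines were seeded in 1536-well plates and dosed by pin tool the next day, with either a single drug or a fixed anchor-drug dose combined with five library-drug doses (not always all listed) spaced in √10 steps. Five days later, one step fixed the cells and stained their nuclei (final 0.05% Triton X-100, 1% formaldehyde, 1 ug/ml Hoechst), and nuclei were counted on 4× images. Relative viability is the nuclei count in treated wells divided by the count in vehicle wells, and each value is the median of duplicate plates.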

[2] = compound: Cc1ccc(NC(=O)c2ccc(CN3CCN(C)CC3)cc2)cc1Nc1nc(-c2cccnc2)cs1 [Masitinib] + N=C(N)NC(=N)NCCc1ccccc1 [Phenformin] (partner 250 µM)
In short: as §1

[3] = compound: CC1=CC(=CC=C1)NC2=NC(=CS2)C3=CC=NC=C3 + Cc1nc(Nc2ncc(C(=O)Nc3c(C)cccc3Cl)s2)cc(N2CCN(CCO)CC2)n1 [Dasatinib] (partner 0.075 µM)
In short: as §1

[4] = compound: CC1=CC(=CC=C1)NC2=NC(=CS2)C3=CC=NC=C3 + Cc1cc(Nc2cc(N3CCN(C)CC3)nc(Sc3ccc(NC(=O)C4CC4)cc3)n2)n[nH]1 [Tozasertib] (partner 0.1 µM)
In short: as §1

UMC-11
relative viability ([1]; first compound 0.08 µM): 0.448
relative viability ([1]; first compound 0.253 µM): 0.512
relative viability ([1]; first compound 0.8 µM): 0.469
relative viability ([1]; first compound 2.53 µM): 0.461
relative viability ([1]; first compound 8 µM): 0.443
relative viability ([2]; first compound 0.03162 µM): 0.331
relative viability ([2]; first compound 0.1 µM): 0.363
relative viability ([2]; first compound 0.3162 µM): 0.377
relative viability ([2]; first compound 1 µM): 0.338
relative viability ([3]; first compound 0.08 µM): 0.477
relative viability ([3]; first compound 0.253 µM): 0.494
relative viability ([3]; first compound 0.8 µM): 0.468
relative viability ([3]; first compound 2.53 µM): 0.481
relative viability ([3]; first compound 8 µM): 0.534
relative viability ([4]; first compound 0.08 µM): 0.219
relative viability ([4]; first compound 0.253 µM): 0.206
relative viability ([4]; first compound 0.8 µM): 0.193
relative viability ([4]; first compound 2.53 µM): 0.185
relative viability ([4]; first compound 8 µM): 0.224
